test system: PC3 cells; assay: NAMPT Cell Proliferation Assay; format: cell-based; conditions: Homo sapiens, PC-3, 120 h, 5 days incubation, cell viability by Cell Titer Glo
Outline: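 Seeded at 500 cells/well in RPMI with 10% heat-inactivated FBS and left to attach overnight at 37° C, 5% CO2. Compounds were added as 10-fold dilutions […] for 5 days, then viability was read by CellTiter-Glo. IC50s came from sigmoidal fits of percent inhibition.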

Compound	IC50 [nM]
O=C(Nc1ccc(O[C@@H]2CCN(C(=O)Cc3ccccc3F)C2)cc1)C1CN(c2cccnn2)C1 [Example 501, N-[4-({(3R)-1-[(2-fluorophenyl)acetyl]pyrrolidin-3-yl}oxy)phenyl]-1-(pyridazin-3-yl)azetidine-3-carboxamide]	6.07
O=C(Nc1ccc(O[C@@H]2CCN(C(=O)C3CC3)C2)cc1)C1CN(c2cccnn2)C1 [Example 502, N-(4-{[(3R)-1-(cyclopropylcarbonyl)pyrrolidin-3-yl]oxy}phenyl)-1-(pyridazin-3-yl)azetidine-3-carboxamide]	4.74
O=C(Nc1ccc(O[C@@H]2CCN(C(=O)C3CCOC3)C2)cc1)C1CN(c2cccnn2)C1 (stereo partly drawn) [Example 503, 1-(pyridazin-3-yl)-N-(4-{[(3R)-1-(tetrahydrofuran-3-ylcarbonyl)pyrrolidin-3-yl]oxy}phenyl)azetidine-3-carboxamide]	58.2
O=C(Nc1ccc(O[C@@H]2CCN(C(=O)c3cccc(OC(F)(F)F)c3)C2)cc1)C1CN(c2cccnn2)C1 [Example 504, 1-(pyridazin-3-yl)-N-[4-({(3R)-1-[3-(trifluoromethoxy)benzoyl]pyrrolidin-3-yl}oxy)phenyl]azetidine-3-carboxamide]	7.75
O=C(Nc1ccc(O[C@@H]2CCN(C(=O)c3ccccn3)C2)cc1)C1CN(c2cccnn2)C1 [Example 505, 1-(pyridazin-3-yl)-N-(4-{[(3R)-1-(pyridin-2-ylcarbonyl)pyrrolidin-3-yl]oxy}phenyl)azetidine-3-carboxamide]	6.84
O=C(Nc1ccc(O[C@@H]2CCN(C(=O)c3cccc(Cl)c3)C2)cc1)C1CN(c2cccnn2)C1 [Example 506, N-(4-{[(3R)-1-(3-chlorobenzoyl)pyrrolidin-3-yl]oxy}phenyl)-1-(pyridazin-3-yl)azetidine-3-carboxamide]	1.28
O=C(Nc1ccc(O[C@@H]2CCN(C(=O)c3ccc(Cl)cc3)C2)cc1)C1CN(c2cccnn2)C1 [Example 507, N-(4-{[(3R)-1-(4-chlorobenzoyl)pyrrolidin-3-yl]oxy}phenyl)-1-(pyridazin-3-yl)azetidine-3-carboxamide]	8.34
CC(C)(C(=O)N1CC[C@@H](Oc2ccc(NC(=O)C3CN(c4cccnn4)C3)cc2)C1)c1ccccc1 [Example 508, N-(4-{[(3R)-1-(2-methyl-2-phenylpropanoyl)pyrrolidin-3-yl]oxy}phenyl)-1-(pyridazin-3-yl)azetidine-3-carboxamide]	0.79
O=C(Nc1ccc(O[C@@H]2CCN(C(=O)c3ccc(F)cc3F)C2)cc1)C1CN(c2cccnn2)C1 [Example 509, N-(4-{[(3R)-1-(2,4-difluorobenzoyl)pyrrolidin-3-yl]oxy}phenyl)-1-(pyridazin-3-yl)azetidine-3-carboxamide]	1.19
COCC(=O)N1CC[C@@H](Oc2ccc(NC(=O)C3CN(c4cccnn4)C3)cc2)C1 [Example 510, N-(4-{[(3R)-1-(methoxyacetyl)pyrrolidin-3-yl]oxy}phenyl)-1-(pyridazin-3-yl)azetidine-3-carboxamide]	66.4
O=C(Nc1ccc(O[C@@H]2CCN(C(=O)c3cccs3)C2)cc1)C1CN(c2cccnn2)C1 [Example 511, 1-(pyridazin-3-yl)-N-(4-{[(3R)-1-(thiophen-2-ylcarbonyl)pyrrolidin-3-yl]oxy}phenyl)azetidine-3-carboxamide]	0.82
O=C(Nc1ccc(O[C@@H]2CCN(C(=O)Cc3cccc(C(F)(F)F)c3)C2)cc1)C1CN(c2cccnn2)C1 [Example 512, 1-(pyridazin-3-yl)-N-(4-{[(3R)-1-{[3-(trifluoromethyl)phenyl]acetyl}pyrrolidin-3-yl]oxy}phenyl)azetidine-3-carboxamide]	15.5
CC(C)C(=O)N1CC[C@@H](Oc2ccc(NC(=O)C3CN(c4cccnn4)C3)cc2)C1 [Example 513, N-(4-{[(3R)-1-(2-methylpropanoyl)pyrrolidin-3-yl]oxy}phenyl)-1-(pyridazin-3-yl)azetidine-3-carboxamide]	3.5
O=C(Nc1ccc(O[C@@H]2CCN(C(=O)c3ccccc3F)C2)cc1)C1CN(c2cccnn2)C1 [Example 514, N-(4-{[(3R)-1-(2-fluorobenzoyl)pyrrolidin-3-yl]oxy}phenyl)-1-(pyridazin-3-yl)azetidine-3-carboxamide]	0.32
CCC(C)(C)C(=O)N1CC[C@@H](Oc2ccc(NC(=O)C3CN(c4cccnn4)C3)cc2)C1 [Example 515, N-(4-{[(3R)-1-(2,2-dimethylbutanoyl)pyrrolidin-3-yl]oxy}phenyl)-1-(pyridazin-3-yl)azetidine-3-carboxamide]	0.85
O=C(Nc1ccc(O[C@@H]2CCN(C(=O)c3cc(F)cc(F)c3)C2)cc1)C1CN(c2cccnn2)C1 [Example 516, N-(4-{[(3R)-1-(3,5-difluorobenzoyl)pyrrolidin-3-yl]oxy}phenyl)-1-(pyridazin-3-yl)azetidine-3-carboxamide]	2.26
O=C(Nc1ccc(O[C@@H]2CCN(C(=O)c3ccc(C(F)(F)F)cc3)C2)cc1)C1CN(c2cccnn2)C1 [Example 517, 1-(pyridazin-3-yl)-N-[4-({(3R)-1-[4-(trifluoromethyl)benzoyl]pyrrolidin-3-yl}oxy)phenyl]azetidine-3-carboxamide]	9.21
O=C(Nc1ccc(O[C@@H]2CCN(C(=O)c3cccc(F)c3)C2)cc1)C1CN(c2cccnn2)C1 [Example 518, N-(4-{[(3R)-1-(3-fluorobenzoyl)pyrrolidin-3-yl]oxy}phenyl)-1-(pyridazin-3-yl)azetidine-3-carboxamide]	0.87
O=C(Nc1ccc(O[C@@H]2CCN(C(=O)c3ccc(OC(F)(F)F)cc3)C2)cc1)C1CN(c2cccnn2)C1 [Example 519, 1-(pyridazin-3-yl)-N-[4-({(3R)-1-[4-(trifluoromethoxy)benzoyl]pyrrolidin-3-yl}oxy)phenyl]azetidine-3-carboxamide]	3.21
CC(C)CC(=O)N1CC[C@@H](Oc2ccc(NC(=O)C3CN(c4cccnn4)C3)cc2)C1 [Example 520, N-(4-{[(3R)-1-(3-methylbutanoyl)pyrrolidin-3-yl]oxy}phenyl)-1-(pyridazin-3-yl)azetidine-3-carboxamide]	0.47
O=C(Nc1ccc(O[C@@H]2CCN(C(=O)CC(F)(F)F)C2)cc1)C1CN(c2cccnn2)C1 [Example 521, 1-(pyridazin-3-yl)-N-(4-{[(3R)-1-(3,3,3-trifluoropropanoyl)pyrrolidin-3-yl]oxy}phenyl)azetidine-3-carboxamide]	4.72
O=C(Nc1ccc(O[C@@H]2CCN(C(=O)C(F)(F)c3ccccc3)C2)cc1)C1CN(c2cccnn2)C1 [Example 522, N-[4-({(3R)-1-[difluoro(phenyl)acetyl]pyrrolidin-3-yl}oxy)phenyl]-1-(pyridazin-3-yl)azetidine-3-carboxamide]	0.78
CC(C)(C)C(=O)N1CC[C@@H](Oc2ccc(NC(=O)C3CN(c4cccnn4)C3)cc2)C1 [Example 523, N-(4-{[(3R)-1-(2,2-dimethylpropanoyl)pyrrolidin-3-yl]oxy}phenyl)-1-(pyridazin-3-yl)azetidine-3-carboxamide]	0.99
O=C(Nc1ccc(O[C@@H]2CCN(C(=O)C3CCC(F)(F)CC3)C2)cc1)C1CN(c2cccnn2)C1 [Example 524, N-[4-({(3R)-1-[(4,4-difluorocyclohexyl)carbonyl]pyrrolidin-3-yl}oxy)phenyl]-1-(pyridazin-3-yl)azetidine-3-carboxamide]	5.73

Reference: patent publication US20130303509A1, “NAMPT INHIBITORS” (AbbVie Inc., priority 2012, published 2013)
